Earlier results as cited in US7524883B2, “Eponemycin and epoxomicin analogs and uses thereof” (Eisai R&D Management Co., Ltd., priority 2002, dated 2009).

Test system: 20S proteasome

Row | Compound | binding to the 20S proteasome
1 | C=C(C)C[C@H](NC(=O)[C@H](CO)NC(=O)CCCCC(C)C)C(=O)[C@@]1(CO)CO1 [Eponemycin] | bind covalently and irreversibly
2 | CC[C@H](C)[C@H](NC(=O)[C@H]([C@@H](C)CC)N(C)C(C)=O)C(=O)N[C@H](C(=O)N[C@@H](CC(C)C)C(=O)[C@@]1(C)CO1)[C@@H](C)O [Epoxomicin] | bind covalently and irreversibly
